# Reference: ChEMBL document CHEMBL1201862, “PubChem BioAssay data set” (2004)
#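 Step 1: Grow cells in 96-well plates. Step 2: Expose to compound for 48 hours at 5 concentrations. Step 3: Interpolate endpoints linearly; if unreached, use highest concentration. GI50 marks 50% less growth.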 The source made the active and inactive calls. No stated cut-off is given here; in the data, active = GI50 up to about 1.1 µM and inactive = higher.
# How the values were obtained:
# Experiment in all cases: inhibition of tumour cell growth, NCI panel, 48 h
# [1] = test system: DMS-114
# [2] = test system: DMS-273
# [3] = test system: HOP-18
# [4] = test system: KM-20L2
# [5] = test system: RXF 631
# [6] = test system: SNB-78
# [7] = test system: XF498
SMILES,GI50 [1],GI50 [2],GI50 [3],GI50 [4],GI50 [5],GI50 [6],GI50 [7]
COc1cc(/C=C2\[C@H]3c4c(c(OC)c(C)c(OC)c4OC)C[C@@H](C(=O)N2Cc2ccccc2)N3C(=O)OC(C)C)c(OC)c(C)c1OC,47.5 µM (inactive),25.9 µM (inactive),> 100 µM (inactive),> 100 µM (inactive),> 100 µM (inactive),–,–
CCCCNc1nc(C#N)c(N)s1,–,> 100 µM (inactive),–,> 100 µM (inactive),> 100 µM (inactive),> 100 µM (inactive),> 100 µM (inactive)
COc1ccc(CC2NCCc3cc(OC)c(OC)cc32)cc1 (centres undefined),59.6 µM (inactive),> 100 µM (inactive),> 100 µM (inactive),> 100 µM (inactive),> 100 µM (inactive),> 100 µM (inactive),> 100 µM (inactive)
COC(=O)CCC(NC(=S)N/N=C(\C)c1ccco1)C(=O)OC (centres undefined),> 100 µM (inactive),> 100 µM (inactive),> 100 µM (inactive),> 100 µM (inactive),> 100 µM (inactive),> 100 µM (inactive),> 100 µM (inactive)
C[Si](C)(C)/C=C\CCCN1C(=O)CCC1=O,71.1 µM (inactive),–,–,> 100 µM (inactive),> 100 µM (inactive),> 100 µM (inactive),> 100 µM (inactive)
Fc1ccc(C2SCc3nc4ccccc4n32)cc1F (centres undefined),18.1 µM (inactive),26.5 µM (inactive),60.4 µM (inactive),55.5 µM (inactive),28.8 µM (inactive),32.2 µM (inactive),25.4 µM (inactive)
C[Si](C)(C)/C(Br)=C\CCN1C(=O)CCC1=O,> 35.2 µM (inactive),> 100 µM (inactive),> 100 µM (inactive),> 100 µM (inactive),> 100 µM (inactive),> 100 µM (inactive),> 100 µM (inactive)
CCCCCCCCCCCCCC(=O)O[C@H]1CC[C@H](NC(=O)[C@H](OC)[C@H](O)[C@@H](O)[C@H](O)/C=C/C(C)C)C(=O)N(C)C1 [BENGAMIDE B],0.00284 µM (active),< 0.0015 µM (active),0.134 µM (active),0.00577 µM (active),< 0.0015 µM (active),0.173 µM (active),0.0164 µM (active)
CN(C)CC[N+]1=Nc2cccc3cccc(c23)N1,> 64.3 µM (inactive),17.7 µM (inactive),–,40.7 µM (inactive),44.5 µM (inactive),> 100 µM (inactive),> 86.3 µM (inactive)
Cc1cc([N+](=O)[O-])ccc1NC(=O)C(=O)C(C(=O)c1ccccc1-c1ccccc1)C1OC(=O)c2ccccc21 (centres undefined),13.1 µM (inactive),4.99 µM (inactive),14.2 µM (inactive),3.48 µM (inactive),4.75 µM (inactive),17.9 µM (inactive),5.93 µM (inactive)
c1ccc(NCn2cnc3ccccc32)cc1,> 100 µM (inactive),> 100 µM (inactive),> 100 µM (inactive),6.04 µM (inactive),> 100 µM (inactive),> 100 µM (inactive),> 100 µM (inactive)
Cc1cc2c(c(C(=O)O)c1C)-c1cccc(F)c1C2=O,> 100 µM (inactive),> 100 µM (inactive),–,> 100 µM (inactive),> 100 µM (inactive),> 100 µM (inactive),> 100 µM (inactive)
CCOC(=O)C(=Cc1cc(OC)ccc1OC)C(=O)OCC,2.81 µM (inactive),3.75 µM (inactive),11.4 µM (inactive),2.21 µM (inactive),5.81 µM (inactive),–,11.2 µM (inactive)
COC(=O)C(=O)C(C(=O)C(=O)Nc1ccc(F)cc1)c1nc2ccc([N+](=O)[O-])cc2nc1O (centres undefined),–,–,> 100 µM (inactive),> 100 µM (inactive),> 100 µM (inactive),> 100 µM (inactive),> 100 µM (inactive)
CCCCN(CCCC)CC(C(=O)Nc1ccc([N+](=O)[O-])cc1[N+](=O)[O-])/C(C)=N\NC(=O)C[N+](C)(C)C (centres undefined),31.6 µM (inactive),15.9 µM (inactive),78.9 µM (inactive),> 100 µM (inactive),69.2 µM (inactive),97.7 µM (inactive),39.3 µM (inactive)
